Results published in ChEMBL document CHEMBL3784934, “N-Alkylpyrido[1',2':1,5]pyrazolo-[4,3-d]pyrimidin-4-amines: A new series of negative allosteric modulators of mGlu1/5 with CNS exposure in rodents” (Bioorg Med Chem Lett, 2016).
Calls of active or inactive are those of the source. The calls are words filed in the database; no cut-off is given here.

How the values were obtained:
[1] = target: Metabotropic glutamate receptor 1 (Rattus norvegicus, UniProt P23385); test: Negative allosteric modulation of rat mGluR1 expressed in HEK293 cells assessed as inhibition of glutamate induced calcium mobilization by calcium mobilization assay; assay type: functional, cell-based
[2] = target: Metabotropic glutamate receptor 1 (Rattus norvegicus) (UniProt P23385); test: Negative allosteric modulation of rat mGluR1 expressed in HEK293 cells assessed as calcium mobilization at 30 uM by calcium mobilization assay relative to 100 uM glutamate; assay type: functional, cell-based
[3] = target: Metabotropic glutamate receptor 5 (Rattus norvegicus, UniProt P31424); test: Negative allosteric modulation of rat mGluR5 expressed in HEK293 cells assessed as inhibition of glutamate induced calcium mobilization by calcium mobilization assay; assay type: functional, cell-based; details: read-out: IC50
Sequence of Metabotropic glutamate receptor 5 (P31424 whole entry): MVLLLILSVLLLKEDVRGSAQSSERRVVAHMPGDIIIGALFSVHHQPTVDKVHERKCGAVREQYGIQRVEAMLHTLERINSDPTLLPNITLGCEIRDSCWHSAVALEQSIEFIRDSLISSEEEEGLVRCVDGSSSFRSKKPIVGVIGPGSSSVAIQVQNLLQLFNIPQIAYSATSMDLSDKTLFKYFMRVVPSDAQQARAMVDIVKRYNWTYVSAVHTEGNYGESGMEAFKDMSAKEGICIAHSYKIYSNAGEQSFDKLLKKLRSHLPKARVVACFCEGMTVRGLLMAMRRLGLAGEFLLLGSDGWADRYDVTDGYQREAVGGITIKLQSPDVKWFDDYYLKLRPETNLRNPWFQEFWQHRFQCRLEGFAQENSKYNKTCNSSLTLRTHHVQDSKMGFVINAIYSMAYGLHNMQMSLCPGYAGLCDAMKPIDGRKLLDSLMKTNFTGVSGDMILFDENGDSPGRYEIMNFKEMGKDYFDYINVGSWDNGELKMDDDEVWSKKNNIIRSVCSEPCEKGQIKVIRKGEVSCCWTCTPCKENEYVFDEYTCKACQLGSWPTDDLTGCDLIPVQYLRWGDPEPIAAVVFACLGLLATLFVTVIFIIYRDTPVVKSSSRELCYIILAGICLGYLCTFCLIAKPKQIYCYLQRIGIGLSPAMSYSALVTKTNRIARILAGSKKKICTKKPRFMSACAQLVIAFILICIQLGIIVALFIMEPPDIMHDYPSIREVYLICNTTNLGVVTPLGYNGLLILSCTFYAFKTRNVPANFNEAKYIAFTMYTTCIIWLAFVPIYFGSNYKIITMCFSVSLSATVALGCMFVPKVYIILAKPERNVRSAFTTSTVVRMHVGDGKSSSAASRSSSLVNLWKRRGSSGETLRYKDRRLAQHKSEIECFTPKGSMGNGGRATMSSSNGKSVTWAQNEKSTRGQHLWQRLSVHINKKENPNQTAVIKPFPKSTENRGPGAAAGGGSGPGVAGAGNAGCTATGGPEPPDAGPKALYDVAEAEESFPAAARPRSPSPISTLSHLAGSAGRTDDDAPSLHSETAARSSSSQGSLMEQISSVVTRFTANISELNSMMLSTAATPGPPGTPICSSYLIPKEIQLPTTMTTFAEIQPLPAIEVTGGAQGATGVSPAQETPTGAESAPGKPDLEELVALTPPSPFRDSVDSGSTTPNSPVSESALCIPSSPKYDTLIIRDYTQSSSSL

[4] = target: Metabotropic glutamate receptor 5 (Rattus norvegicus) (UniProt P31424); test: Negative allosteric modulation of rat mGluR5 expressed in HEK293 cells assessed as calcium mobilization at 30 uM by calcium mobilization assay relative to 100 uM glutamate; assay type: functional, cell-based
[5] = target: Adenosine receptor A1 (Homo sapiens) (UniProt P30542); test: Inhibition of recombinant human Adenosine A1 receptor expressed in CHO cells at 10 uM by radioligand binding assay; assay type: cell-based
[6] = target: Adenosine receptor A2a (Homo sapiens) (UniProt P29274); test: Inhibition of recombinant human Adenosine A2A receptor expressed in HEK293 cells at 10 uM by radioligand binding assay; assay type: cell-based
[7] = target: 5-hydroxytryptamine receptor 2B (Homo sapiens) (UniProt P41595); test: Inhibition of recombinant human 5-HT2B receptor expressed in CHOK1 cells at 10 uM by radioligand binding assay; assay type: cell-based; details: CHO-K1
[8] = target: Sodium-dependent noradrenaline transporter (Homo sapiens) (UniProt P23975); test: Inhibition of recombinant human norepinephrine transporter expressed in MDCK cells at 10 uM by radioligand binding assay; assay type: cell-based
Rattus norvegicus = organism: Rattus norvegicus; test: Inhibition of rat brain sodium channel, site 2 at 10 uM by radioligand binding assay
[9] = target: Casein kinase I isoform alpha (Homo sapiens) (UniProt P48729); test: Inhibition of human CK1alpha1 at 10 uM
[10] = target: Casein kinase I isoform delta (Homo sapiens) (UniProt P48730); test: Inhibition of human CK1delta at 10 uM
[11] = target: Casein kinase I isoform epsilon (Homo sapiens) (UniProt P49674); test: Inhibition of human CK1epsilon at 10 uM
Sequence of Casein kinase I isoform epsilon (Homo sapiens) (P49674 whole entry, looked up, canonical isoform): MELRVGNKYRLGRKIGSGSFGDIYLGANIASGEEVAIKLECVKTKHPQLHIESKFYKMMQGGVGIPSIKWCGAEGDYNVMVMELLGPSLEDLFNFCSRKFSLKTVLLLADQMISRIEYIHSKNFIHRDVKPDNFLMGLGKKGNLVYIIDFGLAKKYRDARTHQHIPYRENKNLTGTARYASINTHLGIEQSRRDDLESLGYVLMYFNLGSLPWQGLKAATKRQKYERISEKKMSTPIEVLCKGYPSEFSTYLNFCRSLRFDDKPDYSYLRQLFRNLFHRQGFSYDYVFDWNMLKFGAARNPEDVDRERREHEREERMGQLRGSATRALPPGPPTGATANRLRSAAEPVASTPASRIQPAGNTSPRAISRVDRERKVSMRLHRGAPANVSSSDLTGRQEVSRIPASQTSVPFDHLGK

[12] = target: Casein kinase I isoform gamma-2 (Homo sapiens) (UniProt P78368); test: Inhibition of human CK1gamma2 at 10 uM
[13] = target: Serine/threonine-protein kinase 17A (Homo sapiens) (UniProt Q9UEE5); test: Inhibition of human DRAK1 at 10 uM
[14] = target: SRSF protein kinase 1 (Homo sapiens) (UniProt Q96SB4); test: Inhibition of human SRPK1 at 10 uM
[15] = target: SRSF protein kinase 2 (Homo sapiens) (UniProt P78362); test: Inhibition of human SRPK2 at 10 uM
[16] = target: TRAF2 and NCK-interacting protein kinase (Homo sapiens) (UniProt Q9UKE5); test: Inhibition of human TNIK at 10 uM
[17] = Fraction unbound in mouse plasma by equilibrium dialysis assay; assay type: ADME, cell-free
Plasma = test: Fraction unbound in rat plasma by equilibrium dialysis assay; assay type: ADME, cell-free
[18] = Fraction unbound in rat brain by equilibrium dialysis assay; assay type: ADME, tissue-based
[19] = Fraction unbound in mouse brain by equilibrium dialysis assay; assay type: ADME, tissue-based
Cytochrome P450 3A4 = Cytochrome P450 3A4 (Homo sapiens, UniProt P08684); test: Inhibition of CYP3A4 in human liver microsomes in presence of NADPH; assay type: ADME
Cytochrome P450 2D6 = Cytochrome P450 2D6 (Homo sapiens, UniProt P10635); test: Inhibition of CYP2D6 in human liver microsomes in presence of NADPH; assay type: ADME
Cytochrome P450 2C9 = Cytochrome P450 2C9 (Homo sapiens, UniProt P11712); test: Inhibition of CYP2C9 in human liver microsomes in presence of NADPH; assay type: ADME
Sequence of Cytochrome P450 2C9 (P11712 whole entry): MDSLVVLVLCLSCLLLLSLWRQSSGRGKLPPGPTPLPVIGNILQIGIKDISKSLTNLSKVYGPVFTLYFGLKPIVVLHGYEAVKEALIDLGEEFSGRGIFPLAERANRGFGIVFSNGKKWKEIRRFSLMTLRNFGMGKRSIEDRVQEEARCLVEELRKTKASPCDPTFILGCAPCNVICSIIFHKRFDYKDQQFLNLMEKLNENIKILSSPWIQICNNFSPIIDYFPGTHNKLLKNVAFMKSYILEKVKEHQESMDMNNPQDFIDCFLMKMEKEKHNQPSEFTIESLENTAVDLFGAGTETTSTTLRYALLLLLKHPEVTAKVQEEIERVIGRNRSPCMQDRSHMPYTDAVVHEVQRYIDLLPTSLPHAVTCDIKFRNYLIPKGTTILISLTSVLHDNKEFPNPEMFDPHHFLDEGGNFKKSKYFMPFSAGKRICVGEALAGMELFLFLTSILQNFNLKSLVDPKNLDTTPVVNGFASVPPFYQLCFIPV

Cytochrome P450 1A2 = Cytochrome P450 1A2 (Homo sapiens, UniProt P05177); test: Inhibition of CYP1A2 in human liver microsomes in presence of NADPH; assay type: ADME
[20] = Half life in Sprague-Dawley rat at 0.2 mg/kg, iv; assay type: ADME, organism-based; details: in vivo
[21] = Plasma clearance in Sprague-Dawley rat at 0.2 mg/kg, iv; assay type: ADME, organism-based
[22] = Ratio of drug level in brain to plasma of rat at 0.2 mg/kg measured at 15 mins post dose; assay type: ADME, organism-based; details: 0.25 h
[23] = Ratio of drug level in brain to plasma of CD-1 mouse at 30 mg/kg measured at 30 mins post dose; assay type: ADME, organism-based; details: 0.5 h
[24] = Unbound brain to plasma ratio in rat at 0.2 mg/kg measured at 15 mins post dose; assay type: ADME, organism-based; details: 0.25 h
[25] = Unbound brain to plasma ratio in CD-1 mouse at 30 mg/kg, ip measured at 30 mins post dose; assay type: ADME, organism-based; details: 0.5 h
[26] = Tmax in Sprague-Dawley rat at 10 mg/kg, ip; assay type: ADME, organism-based; details: in vivo
[27] = Cmax in Sprague-Dawley rat at 10 mg/kg, ip; assay type: ADME, organism-based; set-up: dose 10 mg/kg, route intraperitoneal; details: in vivo
[28] = AUC in Sprague-Dawley rat at 10 mg/kg, ip; assay type: ADME, organism-based; details: in vivo
[29] = Tmax in CD-1 mouse at 30 mg/kg, ip; assay type: ADME, organism-based; details: in vivo
[30] = Cmax in CD-1 mouse at 30 mg/kg, ip; assay type: ADME, organism-based; set-up: dose 30 mg/kg, route intraperitoneal; details: in vivo
[31] = AUC in CD-1 mouse at 30 mg/kg, ip; assay type: ADME, organism-based; details: in vivo
[32] = target: Metabotropic glutamate receptor 2 (Rattus norvegicus) (UniProt P31421); test: Activity at rat mGluR2 expressed in HEK293-GIRK cells assessed as effect on glutamate-induced response by thallium flux assay; assay type: cell-based
Sequence of Metabotropic glutamate receptor 2 (Rattus norvegicus) (P31421 19-872 limits assumed): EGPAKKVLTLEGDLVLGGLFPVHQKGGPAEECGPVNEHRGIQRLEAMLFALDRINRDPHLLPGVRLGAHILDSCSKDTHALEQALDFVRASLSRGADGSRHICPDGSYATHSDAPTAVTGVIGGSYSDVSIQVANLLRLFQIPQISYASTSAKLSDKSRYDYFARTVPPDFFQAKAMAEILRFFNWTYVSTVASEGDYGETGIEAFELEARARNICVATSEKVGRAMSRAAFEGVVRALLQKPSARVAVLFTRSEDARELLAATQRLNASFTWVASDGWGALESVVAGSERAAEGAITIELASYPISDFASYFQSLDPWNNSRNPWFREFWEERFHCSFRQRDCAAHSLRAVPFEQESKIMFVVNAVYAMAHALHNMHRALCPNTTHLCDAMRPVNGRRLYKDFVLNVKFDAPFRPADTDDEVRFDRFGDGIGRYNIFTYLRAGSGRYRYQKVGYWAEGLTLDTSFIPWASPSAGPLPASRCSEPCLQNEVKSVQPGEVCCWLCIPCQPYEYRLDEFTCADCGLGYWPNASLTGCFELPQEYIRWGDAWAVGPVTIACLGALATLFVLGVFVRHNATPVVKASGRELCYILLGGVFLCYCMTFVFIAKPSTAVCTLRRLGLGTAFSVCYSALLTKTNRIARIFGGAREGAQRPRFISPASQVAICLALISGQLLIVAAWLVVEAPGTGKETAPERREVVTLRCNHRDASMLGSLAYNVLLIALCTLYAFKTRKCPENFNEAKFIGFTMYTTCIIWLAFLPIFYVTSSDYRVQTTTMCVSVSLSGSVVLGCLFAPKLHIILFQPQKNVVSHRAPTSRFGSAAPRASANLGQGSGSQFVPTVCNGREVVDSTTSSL

[33] = target: Metabotropic glutamate receptor 3 (Rattus norvegicus) (UniProt P31422); test: Activity at rat mGluR3 expressed in HEK293-GIRK cells assessed as effect on glutamate-induced response by thallium flux assay; assay type: cell-based
Sequence of Metabotropic glutamate receptor 3 (Rattus norvegicus) (P31422 23-879 limits assumed): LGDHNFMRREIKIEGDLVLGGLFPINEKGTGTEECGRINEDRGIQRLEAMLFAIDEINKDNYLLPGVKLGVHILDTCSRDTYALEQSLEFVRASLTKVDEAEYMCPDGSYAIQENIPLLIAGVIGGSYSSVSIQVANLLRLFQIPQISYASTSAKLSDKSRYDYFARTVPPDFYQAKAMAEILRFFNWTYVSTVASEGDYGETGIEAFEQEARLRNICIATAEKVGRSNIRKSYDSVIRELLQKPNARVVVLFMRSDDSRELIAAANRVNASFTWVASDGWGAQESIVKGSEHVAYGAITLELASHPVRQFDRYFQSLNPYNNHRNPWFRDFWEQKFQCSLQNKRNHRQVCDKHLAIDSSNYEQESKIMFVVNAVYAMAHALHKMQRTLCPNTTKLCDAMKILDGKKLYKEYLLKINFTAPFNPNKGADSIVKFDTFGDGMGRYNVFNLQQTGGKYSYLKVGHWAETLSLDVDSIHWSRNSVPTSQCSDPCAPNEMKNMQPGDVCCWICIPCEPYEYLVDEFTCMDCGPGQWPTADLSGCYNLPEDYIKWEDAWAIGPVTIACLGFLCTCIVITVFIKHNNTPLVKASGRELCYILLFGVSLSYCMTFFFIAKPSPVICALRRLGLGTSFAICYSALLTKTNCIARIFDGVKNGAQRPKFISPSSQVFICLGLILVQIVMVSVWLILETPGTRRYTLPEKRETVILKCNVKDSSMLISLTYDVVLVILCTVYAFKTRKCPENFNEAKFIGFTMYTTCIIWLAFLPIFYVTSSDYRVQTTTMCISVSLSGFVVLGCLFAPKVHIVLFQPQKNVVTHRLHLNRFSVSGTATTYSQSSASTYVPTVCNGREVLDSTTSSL

[34] = target: Metabotropic glutamate receptor 4 (Rattus norvegicus) (UniProt P31423); test: Activity at rat mGluR4 expressed in HEK293-GIRK cells assessed as effect on glutamate-induced response by thallium flux assay; assay type: cell-based
[35] = target: Metabotropic glutamate receptor 6 (Rattus norvegicus) (UniProt P35349); test: Activity at rat mGluR6 expressed in HEK293-GIRK cells assessed as effect on glutamate-induced response by thallium flux assay; assay type: cell-based
Sequence of Metabotropic glutamate receptor 6 (Rattus norvegicus) (P35349 whole entry): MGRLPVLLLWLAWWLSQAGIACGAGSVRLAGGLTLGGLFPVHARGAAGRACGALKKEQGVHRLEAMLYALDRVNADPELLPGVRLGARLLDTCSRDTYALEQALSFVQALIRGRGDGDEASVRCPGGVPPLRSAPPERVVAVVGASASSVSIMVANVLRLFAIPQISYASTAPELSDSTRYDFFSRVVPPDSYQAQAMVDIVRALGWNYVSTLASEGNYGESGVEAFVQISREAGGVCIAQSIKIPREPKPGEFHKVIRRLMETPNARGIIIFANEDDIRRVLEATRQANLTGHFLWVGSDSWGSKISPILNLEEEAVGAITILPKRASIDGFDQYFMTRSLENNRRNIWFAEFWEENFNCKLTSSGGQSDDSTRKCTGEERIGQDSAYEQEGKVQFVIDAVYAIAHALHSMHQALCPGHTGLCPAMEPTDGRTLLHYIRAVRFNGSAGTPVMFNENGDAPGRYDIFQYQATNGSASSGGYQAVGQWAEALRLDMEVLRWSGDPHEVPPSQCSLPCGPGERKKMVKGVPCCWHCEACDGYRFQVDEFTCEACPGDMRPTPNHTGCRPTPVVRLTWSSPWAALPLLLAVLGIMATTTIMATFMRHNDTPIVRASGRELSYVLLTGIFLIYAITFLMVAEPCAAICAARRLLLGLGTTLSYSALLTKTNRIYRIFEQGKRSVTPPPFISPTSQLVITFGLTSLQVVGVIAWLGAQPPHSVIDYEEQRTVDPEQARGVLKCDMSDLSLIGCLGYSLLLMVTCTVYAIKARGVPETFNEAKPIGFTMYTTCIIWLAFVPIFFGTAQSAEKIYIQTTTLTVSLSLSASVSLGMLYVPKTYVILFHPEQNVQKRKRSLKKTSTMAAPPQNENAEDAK

[36] = target: Metabotropic glutamate receptor 7 (Rattus norvegicus) (UniProt P35400); test: Activity at rat mGluR7 expressed in HEK293-GIRK cells assessed as effect on glutamate-induced response by thallium flux assay; assay type: cell-based
[37] = target: Metabotropic glutamate receptor 8 (Rattus norvegicus) (UniProt P70579); test: Activity at rat mGluR8 expressed in HEK293-GIRK cells assessed as effect on glutamate-induced response by thallium flux assay; assay type: cell-based
[38] = target: Adenosine receptor A3 (Homo sapiens) (UniProt P0DMS8); test: Inhibition of recombinant human Adenosine A3 receptor expressed in CHOK1 cells at 10 uM by radioligand binding assay; details: CHO-K1
Sequence of Adenosine receptor A3 (Homo sapiens) (P0DMS8 whole entry, looked up): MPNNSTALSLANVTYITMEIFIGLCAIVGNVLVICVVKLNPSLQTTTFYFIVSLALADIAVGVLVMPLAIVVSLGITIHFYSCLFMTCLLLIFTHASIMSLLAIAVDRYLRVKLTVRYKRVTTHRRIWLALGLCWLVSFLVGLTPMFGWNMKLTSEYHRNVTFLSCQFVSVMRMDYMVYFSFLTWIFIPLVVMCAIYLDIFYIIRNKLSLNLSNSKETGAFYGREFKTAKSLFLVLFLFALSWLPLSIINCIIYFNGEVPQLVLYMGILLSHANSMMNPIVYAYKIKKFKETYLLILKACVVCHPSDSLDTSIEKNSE

Q: Which IC50 [1] does the source give for `CC1(C)CCC(Nc2ncnc3c2nn2ccccc32)CC1` here?
A: The IC50 was 0.069 µM.

Q: And the %max [2]?
A: Its %max is 2.9%.

Q: And the IC50 [3]?
A: The IC50 was 0.129 µM.

Q: What about the %max [4] of the same compound?
A: The %max was 1.6%.

Q: What about the inhibition [5] of the same compound?
A: The inhibition was 92%.

Q: And the inhibition [6]?
A: Its inhibition is 94%.

Q: What about the inhibition [7] of the same compound?
A: Its inhibition is 65%.

Q: What about the inhibition [8] of the same compound?
A: Its inhibition is 65%.

Q: What about the inhibition (Rattus norvegicus) of the same compound?
A: Its inhibition is 55%.

Q: What about the inhibition [9] of the same compound?
A: The inhibition was 65.3%.

Q: What about the inhibition [10] of the same compound?
A: The inhibition was 85.1%.

Q: What about the inhibition [11] of the same compound?
A: The inhibition was 75.9%.

Q: What about the inhibition [12] of the same compound?
A: The inhibition was 50.4%.

Q: What about the inhibition [13] of the same compound?
A: Its inhibition is 52.9%.

Q: What about the inhibition [14] of the same compound?
A: The inhibition was 79.4%.

Q: And the inhibition [15]?
A: Its inhibition is 75.2%.

Q: And the inhibition [16]?
A: Its inhibition is 58.8%.

Q: What about the Fu [17] of the same compound?
A: The Fu was 0.025.

Q: What about the Fu (Plasma) of the same compound?
A: Its Fu is 0.037.

Q: And the fraction unbound [18]?
A: Its fraction unbound is 0.008.

Q: And the fraction unbound [19]?
A: The fraction unbound was 0.01.

Q: And the IC50 (Cytochrome P450 3A4)?
A: The IC50 was over 30 µM.

Q: And the IC50 (Cytochrome P450 2D6)?
A: Its IC50 is over 30 µM.

Q: And the IC50 (Cytochrome P450 2C9)?
A: The IC50 was over 30 µM.

Q: What about the IC50 (Cytochrome P450 1A2) of the same compound?
A: The IC50 was 9.6 µM.

Q: What about the half-life [20] of the same compound?
A: Its half-life is 34 min.

Q: And the clearance [21]?
A: The clearance was 98 mL/min/kg.

Q: What about the Kp [22] of the same compound?
A: Its Kp is 5.3.

Q: And the Kp [23]?
A: Its Kp is 3.3.

Q: What about the “K(p,uu,brain)” value [24] of the same compound?
A: The value was 1.1.

Q: And the “K(p,uu,brain)” value [25]?
A: The value was 1.3.

Q: What about the Tmax [26] of the same compound?
A: The Tmax was 15 min.

Q: What about the Cmax [27] of the same compound?
A: Its Cmax is 2300 nM.

Q: And the AUC [28]?
A: The AUC was 3.23 µM·h.

Q: What about the Tmax [29] of the same compound?
A: Its Tmax is 20 min.

Q: And the Cmax [30]?
A: The Cmax was 3000 nM.

Q: What about the AUC [31] of the same compound?
A: Its AUC is 2.86 µM·h.

Q: And the Activity [32]?
A: The Activity was “inactive”.

Q: And the Activity [33]?
A: The Activity was “inactive”.

Q: What about the Activity [34] of the same compound?
A: Its Activity is “inactive”.

Q: What about the Activity [35] of the same compound?
A: Its Activity is “inactive”.

Q: And the Activity [36]?
A: Its Activity is “inactive”.

Q: And the Activity [37]?
A: Its Activity is “inactive”.

Q: What about the inhibition [38] of the same compound?
A: Its inhibition is 63%.
